Test results reported in patent publication US11911396B2, “Use of compound in preparation of drug for treating cerebral small vessel disease” (GUANGZHOU CELLPROTEK PHARMACEUTICAL CO., LTD, priority 2017, dated 2024).

How the values were obtained:
Iba-1 = Iba-1 immunohistochemical staining of prefrontal cortex brain tissue, acute hypobaric hypoxia model; assay type: in vivo, cynomolgus monkeys
Source text: FIG. 2. Activation of microglia in the brain tissue of the prefrontal cortex of cynomolgus monkeys. A. Iba-1 immunohistochemical staining of the brain tissue of the prefrontal cortex of cynomolgus monkeys, Iba-1 serves as a marker for microglia activation. The black scale bar is 25 μm and the red scale bar is 200 μm. B. Statistics of Iba-1 relative optical density values. Image pro plus software was used to perform optical density scanning on the immunohistochemical images of each group to obtain the optical density values, which were then normalized with the NN group. NN: Normobaric Normoxia group (n=4); HH: Hypobaric Hypoxia group (n=4); HH+Triol: Hypobaric Hypoxia with Triol administration group (n=3); HH+PROG: Hypobaric Hypoxia with control drug administration group (n=4). […]
The experiment was carried out according to routine immunohistochemical procedures, as follows: the thickness of paraffin sections of prefrontal cortex tissue of cynomolgus monkeys was 5 μm, and fresh paraffin sections were baked overnight at 37° C. […] Imaging: Nikon ECLIPSE Ti-U inverted fluorescence microscope was used to take pictures of the sections in the bright field, by adjusting the appropriate exposure intensity and background white balance, and fixing the shooting adjustments to take pictures of each group of slices from multiple views and by multiples folds. […]

TNF-α = test: Western blot of TNF-α in prefrontal cortex brain tissue, acute hypobaric hypoxia model; assay type: in vivo, cynomolgus monkeys; settings: FIGS. 3A and 3B
Source text: FIG. 3. […] A. Protein expression of inflammatory factors IL-6, IL-1β and TNF-α in the brain tissue of the prefrontal cortex of cynomolgus monkeys; B. Statistics of protein relative gray scan values. NN: Normobaric Normoxia group (N=3); HH: Hypobaric Hypoxia group (N=3); HH+Triol: Hypobaric Hypoxia with Triol administration group (N=3); HH+PROG: Hypobaric Hypoxia with control drug administration group (N=3). The gray value was obtained by scanning with Image Lab software, and the relative value was obtained after normalizing with α-Tubulin. One-way ANOVA analysis and Dunnutt's t test were used to perform statistical tests, and in the latter each group was compared with the HH group, *, p<0.05; **, p<0.01.
1) Preparation of protein samples (see the instructions of M-PER protein lysate): After the cells had been processed for the specified time, the medium was aspirated and then washed with 4° C. pre-chilled PBS (0.01M pH7.2˜7.3) for 3 times. […] 2) BCA protein quantification (see the instructions of BCA protein quantification kit): corresponding components were added to a 96-well detection plate by the ratio of quantification reagent A solution:B solution:ddH2O:protein=100:2:7.5:5, and albumin standards diluted in gradient concentration were added to draw a standard curve. […] After the reaction, the absorbance of each well at a wavelength of 562 nm was detected using a microplate reader. […]

C[C@@]12CCCC1C1C[C@@H](O)[C@@]3(O)C[C@@H](O)CC[C@]3(C)C1CC2 (stereo partly drawn) [Triol, 5α-androst-3β,5,6β-triol]
number of cells in the activation-like morphology (microglia) (Iba-1; FIG. 2): decreased | expression of Iba-1 (Iba-1; immunohistochemistry, FIG. 2B): decreased significantly | expression level of TNF-α (TNF-α): significantly reduced
